Source: ChEMBL document CHEMBL3885881, “DrugMatrix”

Species: Rattus norvegicus
Experiment: DrugMatrix - Regimen: Daily Repeat
Format: toxicity, organism-based, Sprague-Dawley
Parameters: regimen Daily Repeat, gender Male, age 6-8 weeks
Details: in vivo, po, route oral GAVAGE, vehicle .5 % CMC; for ABSOLUTE BASOPHIL / ABSOLUTE EOSINOPHIL / ABSOLUTE LYMPHOCYTE / ABSOLUTE MONOCYTE / ABSOLUTE SEGMENTED NEUTROPHIL / BASOPHIL / EOSINOPHIL / ERYTHROCYTE COUNT / HEMATOCRIT / HEMOGLOBIN / LEUKOCYTE COUNT / LYMPHOCYTE / MEAN CORPUSCULAR HEMOGLOBIN / MEAN CORPUSCULAR HEMOGLOBIN CONCENTRATION / MEAN CORPUSCULAR VOLUME / MONOCYTE / NEUTROPHIL / NUCLEATED RED BLOOD CELLS / PLATELET COUNT: tissue Blood; for ALANINE AMINOTRANSFERASE / ALBUMIN / ALKALINE PHOSPHATASE / ASPARTATE AMINOTRANSFERASE / BLOOD UREA NITROGEN / CARBON DIOXIDE / CHLORIDE / CHOLESTEROL / CREATINE PHOSPHOKINASE / CREATININE / GLUCOSE / LACTATE DEHYDROGENASE / LIPASE / PHOSPHORUS / POTASSIUM / SODIUM / TOTAL BILIRUBIN / TOTAL PROTEIN / URIC ACID: tissue Plasma
[1] = 30 mg/kg, 72 h, dose level Low, time 3 day
[2] = 30 mg/kg, 120 h, dose level Low, time 5 day
[3] = 1200 mg/kg, 72 h, dose level High, time 3 day
[4] = 1200 mg/kg, 120 h, dose level High, time 5 day

CN(Cc1cc(Br)cc(Br)c1N)C1CCCCC1 [BROMHEXINE]
ABSOLUTE BASOPHIL [1]: 0 CELLS/uL | ABSOLUTE EOSINOPHIL [1]: 52.67 CELLS/uL | ABSOLUTE LYMPHOCYTE [1]: 13749.67 CELLS/uL | ABSOLUTE MONOCYTE [1]: 46.33 CELLS/uL | ABSOLUTE SEGMENTED NEUTROPHIL [1]: 484.67 CELLS/uL | BASOPHIL [1]: 0% | EOSINOPHIL [1]: 0.33% | ERYTHROCYTE COUNT [1]: 5.57 x10E6/uL | HEMATOCRIT [1]: 34.67% | HEMOGLOBIN [1]: 13.63 G/DL | LEUKOCYTE COUNT [1]: 14.33 x10E3/uL | LYMPHOCYTE [1]: 96% | MEAN CORPUSCULAR HEMOGLOBIN [1]: 24.5 pg | MEAN CORPUSCULAR HEMOGLOBIN CONCENTRATION [1]: 39.37 G/DL | MEAN CORPUSCULAR VOLUME [1]: 62.23 fL | MONOCYTE [1]: 0.33% | NEUTROPHIL [1]: 3.33% | NUCLEATED RED BLOOD CELLS [1]: 0.33 /100WBC | PLATELET COUNT [1]: 1277.67 x10E3/uL | ALANINE AMINOTRANSFERASE [1]: 49 u/L | ALBUMIN [1]: 4.13 G/DL | ALKALINE PHOSPHATASE [1]: 406.33 u/L | ASPARTATE AMINOTRANSFERASE [1]: 85 u/L | BLOOD UREA NITROGEN [1]: 15 mg/dL | CARBON DIOXIDE [1]: 23 mmol/L | CHLORIDE [1]: 103.67 MEQ/L | CHOLESTEROL [1]: 65.67 mg/dL | CREATINE PHOSPHOKINASE [1]: 317.67 u/L | CREATININE [1]: 0.18 mg/dL | GLUCOSE [1]: 158 mg/dL | LACTATE DEHYDROGENASE [1]: 370.33 u/L | LIPASE [1]: 9 u/L | PHOSPHORUS [1]: 12.77 mg/dL | POTASSIUM [1]: 6.95 MEQ/L | SODIUM [1]: 145.43 MEQ/L | TOTAL BILIRUBIN [1]: 0.2 mg/dL | TOTAL PROTEIN [1]: 5.77 G/DL | URIC ACID [1]: 1.67 mg/dL | ABSOLUTE BASOPHIL [2]: 0 CELLS/uL | ABSOLUTE EOSINOPHIL [2]: 128.67 CELLS/uL | ABSOLUTE LYMPHOCYTE [2]: 16146.33 CELLS/uL | ABSOLUTE MONOCYTE [2]: 429 CELLS/uL | ABSOLUTE SEGMENTED NEUTROPHIL [2]: 1529.33 CELLS/uL | BASOPHIL [2]: 0% | EOSINOPHIL [2]: 0.67% | ERYTHROCYTE COUNT [2]: 5.35 x10E6/uL | HEMATOCRIT [2]: 33.4% | HEMOGLOBIN [2]: 13.33 G/DL | LEUKOCYTE COUNT [2]: 18.23 x10E3/uL | LYMPHOCYTE [2]: 88.67% | MEAN CORPUSCULAR HEMOGLOBIN [2]: 24.97 pg | MEAN CORPUSCULAR HEMOGLOBIN CONCENTRATION [2]: 39.9 G/DL | MEAN CORPUSCULAR VOLUME [2]: 62.5 fL | MONOCYTE [2]: 2.33% | NEUTROPHIL [2]: 8.33% | NUCLEATED RED BLOOD CELLS [2]: 0 /100WBC | PLATELET COUNT [2]: 1294.67 x10E3/uL | ALANINE AMINOTRANSFERASE [2]: 51.33 u/L | ALBUMIN [2]: 4.27 G/DL | ALKALINE PHOSPHATASE [2]: 334 u/L | ASPARTATE AMINOTRANSFERASE [2]: 80.67 u/L | BLOOD UREA NITROGEN [2]: 15.67 mg/dL | CARBON DIOXIDE [2]: 24.67 mmol/L | CHLORIDE [2]: 103.67 MEQ/L | CHOLESTEROL [2]: 75.33 mg/dL | CREATINE PHOSPHOKINASE [2]: 235.67 u/L | CREATININE [2]: 0.15 mg/dL | GLUCOSE [2]: 144.33 mg/dL | LACTATE DEHYDROGENASE [2]: 206.67 u/L | LIPASE [2]: 8 u/L | PHOSPHORUS [2]: 12.53 mg/dL | POTASSIUM [2]: 6.56 MEQ/L | SODIUM [2]: 145.97 MEQ/L | TOTAL BILIRUBIN [2]: 0.2 mg/dL | TOTAL PROTEIN [2]: 5.87 G/DL | URIC ACID [2]: 1.43 mg/dL | ABSOLUTE BASOPHIL [3]: 0 CELLS/uL | ABSOLUTE EOSINOPHIL [3]: 0 CELLS/uL | ABSOLUTE LYMPHOCYTE [3]: 11402.67 CELLS/uL | ABSOLUTE MONOCYTE [3]: 42 CELLS/uL | ABSOLUTE SEGMENTED NEUTROPHIL [3]: 922 CELLS/uL | BASOPHIL [3]: 0% | EOSINOPHIL [3]: 0% | ERYTHROCYTE COUNT [3]: 5.83 x10E6/uL | HEMATOCRIT [3]: 36.2% | HEMOGLOBIN [3]: 14.53 G/DL | LEUKOCYTE COUNT [3]: 12.37 x10E3/uL | LYMPHOCYTE [3]: 92.33% | MEAN CORPUSCULAR HEMOGLOBIN [3]: 24.93 pg | MEAN CORPUSCULAR HEMOGLOBIN CONCENTRATION [3]: 40.13 G/DL | MEAN CORPUSCULAR VOLUME [3]: 62.07 fL | MONOCYTE [3]: 0.33% | NEUTROPHIL [3]: 7.33% | NUCLEATED RED BLOOD CELLS [3]: 0 /100WBC | PLATELET COUNT [3]: 1700.33 x10E3/uL | ALANINE AMINOTRANSFERASE [3]: 65.67 u/L | ALBUMIN [3]: 4.33 G/DL | ALKALINE PHOSPHATASE [3]: 494.33 u/L | ASPARTATE AMINOTRANSFERASE [3]: 82.67 u/L | BLOOD UREA NITROGEN [3]: 12 mg/dL | CARBON DIOXIDE [3]: 21.33 mmol/L | CHLORIDE [3]: 102.5 MEQ/L | CHOLESTEROL [3]: 83.67 mg/dL | CREATINE PHOSPHOKINASE [3]: 249.33 u/L | CREATININE [3]: 0.17 mg/dL | GLUCOSE [3]: 162.67 mg/dL | LACTATE DEHYDROGENASE [3]: 125.67 u/L | LIPASE [3]: 13 u/L | PHOSPHORUS [3]: 12.63 mg/dL | POTASSIUM [3]: 5.48 MEQ/L | SODIUM [3]: 143.2 MEQ/L | TOTAL BILIRUBIN [3]: 0.17 mg/dL | TOTAL PROTEIN [3]: 5.8 G/DL | URIC ACID [3]: 1.93 mg/dL | ABSOLUTE BASOPHIL [4]: 0 CELLS/uL | ABSOLUTE EOSINOPHIL [4]: 0 CELLS/uL | ABSOLUTE LYMPHOCYTE [4]: 22503 CELLS/uL | ABSOLUTE MONOCYTE [4]: 323.33 CELLS/uL | ABSOLUTE SEGMENTED NEUTROPHIL [4]: 1973.67 CELLS/uL | BASOPHIL [4]: 0% | EOSINOPHIL [4]: 0% | ERYTHROCYTE COUNT [4]: 6.56 x10E6/uL | HEMATOCRIT [4]: 39.57% | HEMOGLOBIN [4]: 16.23 G/DL | LEUKOCYTE COUNT [4]: 24.8 x10E3/uL | LYMPHOCYTE [4]: 90% | MEAN CORPUSCULAR HEMOGLOBIN [4]: 24.77 pg | MEAN CORPUSCULAR HEMOGLOBIN CONCENTRATION [4]: 41.07 G/DL | MEAN CORPUSCULAR VOLUME [4]: 60.37 fL | MONOCYTE [4]: 1.33% | NEUTROPHIL [4]: 8.67% | NUCLEATED RED BLOOD CELLS [4]: 0 /100WBC | PLATELET COUNT [4]: 1311.67 x10E3/uL | ALANINE AMINOTRANSFERASE [4]: 66.67 u/L | ALBUMIN [4]: 4.5 G/DL | ALKALINE PHOSPHATASE [4]: 440.33 u/L | ASPARTATE AMINOTRANSFERASE [4]: 86 u/L | BLOOD UREA NITROGEN [4]: 19.67 mg/dL | CARBON DIOXIDE [4]: 25 mmol/L | CHLORIDE [4]: 102 MEQ/L | CHOLESTEROL [4]: 90.67 mg/dL | CREATINE PHOSPHOKINASE [4]: 343.67 u/L | CREATININE [4]: 0.2 mg/dL | GLUCOSE [4]: 132 mg/dL | LACTATE DEHYDROGENASE [4]: 171.33 u/L | LIPASE [4]: 9.33 u/L | PHOSPHORUS [4]: 11.03 mg/dL | POTASSIUM [4]: 6.65 MEQ/L | SODIUM [4]: 144.3 MEQ/L | TOTAL BILIRUBIN [4]: 0.17 mg/dL | TOTAL PROTEIN [4]: 6.17 G/DL | URIC ACID [4]: 1.33 mg/dL
